Drawing on patent US7074789B2, “Kinase inhibitors” (Amgen Inc., priority 1999, dated 2006), this text covers IC50 for five molecules.

pIC50: −log10 of the molar value.

Holding throughout (format): biochemical
In one assay the target is T1, IGFR-1 (Homo sapiens, UniProt P08069).
T1 construct: Kinases are expressed as either kinase domains or full length constructs; made in house
The assay is described as follows: Kinase inhibition assay (33P transfer), IGFR-1. The settings on record: Table 2, kinase inhibition class.

For a further assay, the target named is T2, Lyn (Homo sapiens, UniProt P07948).
T2 construct: Kinases are expressed as either kinase domains or full length constructs; made in house
The assay is described as follows: Kinase inhibition assay (33P transfer), Lyn. To be noted: Table 6, Lyn-1 kinase inhibition class. The method, boiled down: (§1)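 Recombinant kinase domains or full-length GST- or His-tagged constructs, from E. coli or baculovirus/High Five cells, sometimes with regulatory polypeptides. Transfer of 33P from ATP to plate-bound poly(Glu,Tyr) 4:1 or poly(Arg,Ser) 3:1 counted by liquid scintillation after phosphoric acid wash; IC50 is the concentration halving incorporation.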

Another assay deals with T3, PDGFRB (Homo sapiens, UniProt P09619).
T3 construct: Kinases are expressed as either kinase domains or full length constructs; made in house
The assay is described as follows: Kinase inhibition assay (33P transfer), PDGFRB. The settings on record: read-out: PDGFRB-1.

In a further assay the target is T4, EGFR (Homo sapiens, UniProt P00533).
T4 construct: Kinases are expressed as either kinase domains or full length constructs; made in house
T4 sequence (P00533 25-1210, species assumed): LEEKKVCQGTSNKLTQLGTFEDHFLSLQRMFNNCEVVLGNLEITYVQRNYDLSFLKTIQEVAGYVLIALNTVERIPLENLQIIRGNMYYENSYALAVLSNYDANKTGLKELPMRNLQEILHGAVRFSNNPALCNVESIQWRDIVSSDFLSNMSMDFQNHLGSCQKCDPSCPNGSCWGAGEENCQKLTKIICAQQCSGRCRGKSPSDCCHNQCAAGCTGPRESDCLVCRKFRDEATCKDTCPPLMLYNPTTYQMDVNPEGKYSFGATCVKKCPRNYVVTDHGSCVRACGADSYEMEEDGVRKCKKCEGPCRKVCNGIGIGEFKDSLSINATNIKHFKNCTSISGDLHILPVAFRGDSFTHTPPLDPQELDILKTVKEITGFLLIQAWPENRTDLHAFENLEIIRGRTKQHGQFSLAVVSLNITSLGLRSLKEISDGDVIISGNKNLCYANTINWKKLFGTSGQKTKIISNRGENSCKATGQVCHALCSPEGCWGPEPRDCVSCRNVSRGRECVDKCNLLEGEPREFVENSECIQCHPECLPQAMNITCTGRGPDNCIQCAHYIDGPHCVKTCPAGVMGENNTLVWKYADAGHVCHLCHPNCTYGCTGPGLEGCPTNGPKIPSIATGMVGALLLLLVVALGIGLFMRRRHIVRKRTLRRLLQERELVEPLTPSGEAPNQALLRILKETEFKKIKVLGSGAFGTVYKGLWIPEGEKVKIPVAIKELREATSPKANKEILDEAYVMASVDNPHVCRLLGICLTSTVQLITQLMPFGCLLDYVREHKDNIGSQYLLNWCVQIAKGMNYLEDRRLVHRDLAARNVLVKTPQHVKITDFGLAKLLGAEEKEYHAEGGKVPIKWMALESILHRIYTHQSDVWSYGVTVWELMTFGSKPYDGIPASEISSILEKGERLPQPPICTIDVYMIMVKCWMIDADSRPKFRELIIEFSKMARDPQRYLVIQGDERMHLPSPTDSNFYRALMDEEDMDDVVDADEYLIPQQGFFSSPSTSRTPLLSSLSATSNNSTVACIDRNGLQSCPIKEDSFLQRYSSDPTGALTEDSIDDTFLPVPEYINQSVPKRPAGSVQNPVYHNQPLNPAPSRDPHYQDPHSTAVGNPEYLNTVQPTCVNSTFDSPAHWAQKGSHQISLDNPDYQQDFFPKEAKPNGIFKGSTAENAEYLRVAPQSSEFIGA
The assay is described as follows: Kinase inhibition assay (33P transfer), EGFR. The settings on record: Table 2, kinase inhibition class; read-out: EGFR-1. The method, boiled down:
as §1

Another assay deals with T5, Ret-1 (Homo sapiens, UniProt P07949).
T5 construct: Kinases are expressed as either kinase domains or full length constructs; made in house
T5 sequence (P07949 29-1114): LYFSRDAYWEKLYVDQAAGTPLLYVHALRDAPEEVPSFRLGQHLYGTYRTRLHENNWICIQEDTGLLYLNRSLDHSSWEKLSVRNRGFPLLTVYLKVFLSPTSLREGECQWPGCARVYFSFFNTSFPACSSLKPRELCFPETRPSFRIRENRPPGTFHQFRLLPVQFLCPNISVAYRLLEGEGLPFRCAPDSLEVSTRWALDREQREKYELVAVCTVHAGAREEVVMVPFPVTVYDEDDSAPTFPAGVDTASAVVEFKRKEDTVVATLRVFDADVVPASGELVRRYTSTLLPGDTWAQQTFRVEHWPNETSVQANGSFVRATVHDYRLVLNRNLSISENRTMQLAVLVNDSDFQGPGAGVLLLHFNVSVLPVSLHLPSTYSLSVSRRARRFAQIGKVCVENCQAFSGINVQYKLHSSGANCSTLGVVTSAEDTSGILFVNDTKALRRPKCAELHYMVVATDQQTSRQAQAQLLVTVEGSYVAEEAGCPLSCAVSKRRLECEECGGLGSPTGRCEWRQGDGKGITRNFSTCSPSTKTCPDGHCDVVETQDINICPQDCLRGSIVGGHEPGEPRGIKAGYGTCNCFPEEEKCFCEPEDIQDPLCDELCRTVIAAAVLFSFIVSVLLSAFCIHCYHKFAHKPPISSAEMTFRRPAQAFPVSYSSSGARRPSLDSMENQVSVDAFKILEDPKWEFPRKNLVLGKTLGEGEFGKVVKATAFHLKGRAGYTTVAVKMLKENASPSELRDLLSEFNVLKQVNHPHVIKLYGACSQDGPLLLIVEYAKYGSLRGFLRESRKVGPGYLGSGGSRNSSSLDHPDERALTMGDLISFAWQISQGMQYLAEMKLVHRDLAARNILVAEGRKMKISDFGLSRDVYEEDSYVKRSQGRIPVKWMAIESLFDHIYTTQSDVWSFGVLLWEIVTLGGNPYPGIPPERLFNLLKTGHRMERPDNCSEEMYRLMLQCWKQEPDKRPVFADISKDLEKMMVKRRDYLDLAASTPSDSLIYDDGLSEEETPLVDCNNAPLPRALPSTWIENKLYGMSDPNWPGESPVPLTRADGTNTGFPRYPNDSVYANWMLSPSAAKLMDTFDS
The assay is described as follows: Kinase inhibition assay (33P transfer), Ret. The settings on record: Table 6, Ret-1 kinase inhibition class.

The next assay deals with T6, Tek (Homo sapiens, UniProt Q02763).
T6 construct: Kinases are expressed as either kinase domains or full length constructs; made in house
The experiment in a line: Kinase inhibition assay (33P transfer), Tek. The settings on record: read-out: Tek-1. The method, boiled down:
as §1

A further assay addresses T7, Itk (Homo sapiens, UniProt Q08881).
T7 construct: Kinases are expressed as either kinase domains or full length constructs; made in house
T7 sequence (Q08881 1-620): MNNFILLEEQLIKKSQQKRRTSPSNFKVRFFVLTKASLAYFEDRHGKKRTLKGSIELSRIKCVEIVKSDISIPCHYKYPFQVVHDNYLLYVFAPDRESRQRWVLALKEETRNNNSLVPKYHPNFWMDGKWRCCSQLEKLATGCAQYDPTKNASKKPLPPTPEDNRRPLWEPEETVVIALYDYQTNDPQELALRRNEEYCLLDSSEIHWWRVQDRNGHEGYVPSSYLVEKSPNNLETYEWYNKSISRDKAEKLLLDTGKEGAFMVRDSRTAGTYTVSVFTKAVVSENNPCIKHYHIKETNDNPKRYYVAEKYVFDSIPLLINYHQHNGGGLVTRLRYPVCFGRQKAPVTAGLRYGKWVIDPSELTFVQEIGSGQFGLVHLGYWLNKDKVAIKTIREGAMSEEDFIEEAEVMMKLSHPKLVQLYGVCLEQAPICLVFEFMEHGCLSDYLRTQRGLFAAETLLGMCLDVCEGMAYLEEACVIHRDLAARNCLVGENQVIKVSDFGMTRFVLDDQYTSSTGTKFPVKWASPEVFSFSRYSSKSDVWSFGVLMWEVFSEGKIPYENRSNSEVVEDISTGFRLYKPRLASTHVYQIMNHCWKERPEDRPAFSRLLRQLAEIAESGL
The assay is described as follows: Kinase inhibition assay (33P transfer), Itk. The settings on record: Table 3; read-out: Itk-1. The method, boiled down:
as §1

Another assay concerns the target T8, c-Met (Homo sapiens, UniProt P08581).
T8 construct: Kinases are expressed as either kinase domains or full length constructs; made in house
The experiment in a line: Kinase inhibition assay (33P transfer), c-Met. To be noted: Table 2, kinase inhibition class; read-out: Met-1. The method, boiled down:
as §1

For another assay, the target named is T9, Kdr (Homo sapiens, UniProt P35968).
T9 construct: Kinases are expressed as either kinase domains or full length constructs; made in house
The assay is described as follows: Kinase inhibition assay (33P transfer), Kdr. The settings on record: Table 3; read-out: KDR-1. The method, boiled down:
(§2)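 Kinase domain or full-length constructs, GST- or polyHis-tagged, expressed in E. coli or baculovirus-High Five cells, sometimes with regulatory polypeptides. Activity measured as 33PO4 transfer from ATP to plate-bound poly(Glu,Tyr) 4:1 or poly(Arg,Ser) 3:1; after incubation, plates washed with 0.5% phosphoric acid and counted by liquid scintillation.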

A further assay concerns the target T10, Lck (Homo sapiens, UniProt P06239).
T10 construct: Kinases are expressed as either kinase domains or full length constructs; made in house
The experiment in a line: Kinase inhibition assay (33P transfer), Lck. The settings on record: Table 3; read-out: Lck-1. The method, boiled down: as §2

The target of a further assay is T11, FGFR1 (Homo sapiens, UniProt P11362).
T11 construct: Kinases are expressed as either kinase domains or full length constructs; made in house
T11 sequence (P11362 22-822, species assumed): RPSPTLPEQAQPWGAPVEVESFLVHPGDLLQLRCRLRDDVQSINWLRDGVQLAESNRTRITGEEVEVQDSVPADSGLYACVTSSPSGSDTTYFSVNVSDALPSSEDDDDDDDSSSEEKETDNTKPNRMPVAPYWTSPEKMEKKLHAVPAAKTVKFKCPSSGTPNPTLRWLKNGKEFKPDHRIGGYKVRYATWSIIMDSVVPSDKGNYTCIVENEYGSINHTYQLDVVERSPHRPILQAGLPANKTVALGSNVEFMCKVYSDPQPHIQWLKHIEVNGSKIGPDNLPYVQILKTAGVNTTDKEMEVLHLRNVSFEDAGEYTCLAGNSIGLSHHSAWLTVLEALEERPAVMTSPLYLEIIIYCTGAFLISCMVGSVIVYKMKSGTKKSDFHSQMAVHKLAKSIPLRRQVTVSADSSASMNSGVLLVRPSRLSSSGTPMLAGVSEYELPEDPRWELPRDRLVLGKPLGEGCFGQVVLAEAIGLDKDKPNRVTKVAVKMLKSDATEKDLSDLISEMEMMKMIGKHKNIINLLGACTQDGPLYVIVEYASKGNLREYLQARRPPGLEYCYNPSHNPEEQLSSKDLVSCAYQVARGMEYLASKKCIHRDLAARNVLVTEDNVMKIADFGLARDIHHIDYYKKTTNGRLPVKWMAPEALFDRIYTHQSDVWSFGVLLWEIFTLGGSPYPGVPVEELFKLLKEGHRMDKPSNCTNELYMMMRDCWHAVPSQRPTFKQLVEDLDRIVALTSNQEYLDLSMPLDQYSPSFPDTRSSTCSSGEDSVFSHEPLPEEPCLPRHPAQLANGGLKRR
The experiment in a line: Kinase inhibition assay (33P transfer), FGFR1. The settings on record: read-out: FGFR1-1.

In a further assay the target is T12, Src (Homo sapiens, UniProt P12931).
T12 construct: Kinases are expressed as either kinase domains or full length constructs; made in house
T12 sequence (P12931 whole entry, species assumed, the tested form may be a part): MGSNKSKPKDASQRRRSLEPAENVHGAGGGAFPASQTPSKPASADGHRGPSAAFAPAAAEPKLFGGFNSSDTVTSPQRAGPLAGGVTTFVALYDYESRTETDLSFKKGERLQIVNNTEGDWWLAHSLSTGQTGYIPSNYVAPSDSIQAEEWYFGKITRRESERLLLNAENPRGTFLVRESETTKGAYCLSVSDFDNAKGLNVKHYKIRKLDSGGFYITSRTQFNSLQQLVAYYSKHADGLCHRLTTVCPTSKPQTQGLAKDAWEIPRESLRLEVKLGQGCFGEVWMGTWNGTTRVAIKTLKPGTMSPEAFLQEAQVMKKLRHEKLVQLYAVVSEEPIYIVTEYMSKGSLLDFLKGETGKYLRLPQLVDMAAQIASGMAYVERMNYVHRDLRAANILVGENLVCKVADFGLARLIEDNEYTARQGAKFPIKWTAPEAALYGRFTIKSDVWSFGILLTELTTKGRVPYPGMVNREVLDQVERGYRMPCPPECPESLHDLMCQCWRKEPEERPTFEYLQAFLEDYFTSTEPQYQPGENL
The assay is described as follows: Kinase inhibition assay (33P transfer), Src. The settings on record: Table 6, Src-1 kinase inhibition class. The method, boiled down:
as §1

For another assay, the target named is T13, ErbB4 (Homo sapiens, UniProt Q15303).
T13 construct: Kinases are expressed as either kinase domains or full length constructs; made in house
The experiment in a line: Kinase inhibition assay (33P transfer), ErbB4. To be noted: read-out: ErbB4-1.

T8 sequence (P08581 25-1390): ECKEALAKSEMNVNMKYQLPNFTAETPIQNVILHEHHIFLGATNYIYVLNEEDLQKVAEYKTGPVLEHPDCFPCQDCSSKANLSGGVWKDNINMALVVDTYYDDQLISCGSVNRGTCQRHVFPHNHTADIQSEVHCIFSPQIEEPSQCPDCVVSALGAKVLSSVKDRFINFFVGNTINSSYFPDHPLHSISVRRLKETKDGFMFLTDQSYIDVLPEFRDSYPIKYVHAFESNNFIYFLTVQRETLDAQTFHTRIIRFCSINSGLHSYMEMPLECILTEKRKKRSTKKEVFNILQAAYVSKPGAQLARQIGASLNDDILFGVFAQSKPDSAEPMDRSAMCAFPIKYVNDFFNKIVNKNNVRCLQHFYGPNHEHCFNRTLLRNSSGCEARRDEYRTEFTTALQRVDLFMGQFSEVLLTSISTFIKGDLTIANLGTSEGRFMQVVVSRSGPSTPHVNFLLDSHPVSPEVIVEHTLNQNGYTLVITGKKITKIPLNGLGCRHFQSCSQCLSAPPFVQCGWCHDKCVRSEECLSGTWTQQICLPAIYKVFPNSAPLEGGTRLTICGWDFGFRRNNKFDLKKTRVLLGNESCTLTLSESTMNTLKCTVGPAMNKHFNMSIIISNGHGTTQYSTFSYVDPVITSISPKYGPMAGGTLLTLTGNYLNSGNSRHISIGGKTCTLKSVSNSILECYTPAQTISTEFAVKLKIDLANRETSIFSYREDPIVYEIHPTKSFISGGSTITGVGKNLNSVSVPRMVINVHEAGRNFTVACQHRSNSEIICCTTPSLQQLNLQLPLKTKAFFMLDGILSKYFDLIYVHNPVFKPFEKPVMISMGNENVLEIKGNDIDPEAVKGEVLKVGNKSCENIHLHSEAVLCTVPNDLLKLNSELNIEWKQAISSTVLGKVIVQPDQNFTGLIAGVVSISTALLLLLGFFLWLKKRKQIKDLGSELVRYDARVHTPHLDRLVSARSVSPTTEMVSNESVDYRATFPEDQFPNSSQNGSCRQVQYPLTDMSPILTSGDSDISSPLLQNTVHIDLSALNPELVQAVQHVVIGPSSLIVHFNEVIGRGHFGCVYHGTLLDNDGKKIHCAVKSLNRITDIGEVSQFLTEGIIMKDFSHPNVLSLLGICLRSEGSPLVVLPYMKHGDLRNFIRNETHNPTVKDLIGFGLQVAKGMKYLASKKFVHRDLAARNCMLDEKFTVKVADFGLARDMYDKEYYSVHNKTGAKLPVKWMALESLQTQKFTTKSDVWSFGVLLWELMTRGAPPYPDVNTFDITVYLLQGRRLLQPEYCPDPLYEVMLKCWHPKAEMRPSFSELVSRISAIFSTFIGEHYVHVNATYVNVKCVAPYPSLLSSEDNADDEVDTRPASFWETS

For `COc1cc(Nc2ncnc(Nc3ccc(C)cc3F)n2)cc(OC)c1OC` [Compound 937], the pIC50 against IGFR-1 is over 5.98; against Lyn, over 5.98; at PDGFRB, over 5.98; at EGFR, over 5.98; against Ret-1 it was over 5.98; on Tek it was under 4.93. Further, the pIC50 is under 4.93 on Itk; 5.04 to 5.21 on c-Met; over 5.98 at Kdr; 5.21 to 5.98 at Lck; under 4.93 at FGFR1; 5.21 to 5.98 at Src. Also, on ErbB4, the pIC50 was 5.04 to 5.21.

On to `COc1cc(Nc2ncnc(N3CCCc4ccccc43)n2)cc(OC)c1OC` [Compound 609], for which the pIC50 is under 4.94 against IGFR-1; over 5.99 on Lyn; over 5.99 on PDGFRB; over 5.99 at EGFR; over 5.99 against Ret-1; 4.94 to 5.05 at Tek. The pIC50 is under 4.94 on Itk; 5.21 to 5.99 on c-Met; over 5.99 on Kdr; over 5.99 at Lck; over 5.99 on FGFR1; over 5.99 on Src. On ErbB4, the pIC50 is under 4.94.

As for `COc1ccc(Nc2ccc(Nc3ncnc(Nc4cc(OC)c(OC)c(OC)c4)n3)cc2)cc1` [Compound 922], the pIC50 at IGFR-1 was 5.30 to 6.07; against Lyn it was over 6.07; on PDGFRB, 5.30 to 6.07; at EGFR, 5.30 to 6.07; on Ret-1 it was 5.30 to 6.07; at Tek, 5.30 to 6.07. The pIC50 on Itk is under 5.02; at c-Met, 5.13 to 5.30; on Kdr, over 6.07; on Lck, 5.30 to 6.07; on FGFR1, 5.30 to 6.07; on Src, 5.30 to 6.07. The pIC50 at ErbB4 was over 6.07.

For `COc1cc(Nc2ncnc(Nc3cc(-c4cccs4)n[nH]3)n2)cc(OC)c1OC` [Compound 318], the pIC50 on IGFR-1 was over 6.03; against Lyn it was over 6.03; on PDGFRB, over 6.03; at EGFR, over 6.03; at Ret-1, over 6.03; on Tek it was 5.08 to 5.25. Moreover, the pIC50 was 5.08 to 5.25 at Itk; over 6.03 at c-Met; over 6.03 on Kdr; 5.25 to 6.03 on Lck; 5.25 to 6.03 on FGFR1; over 6.03 against Src. For the same molecule, the pIC50 at ErbB4 was over 6.03.

For `COc1cc(Nc2ncnc(-n3ccc4cc(OCc5ccccc5)ccc43)n2)cc(OC)c1OC` [Compound 200], the pIC50 was under 5.03 at IGFR-1; under 5.03 on Lyn; 5.30 to 6.08 on PDGFRB; under 5.03 at EGFR; under 5.03 on Ret-1; under 5.03 at Tek. The pIC50 was under 5.03 at Itk; 5.03 to 5.14 on c-Met; 5.14 to 5.30 at Kdr; 5.03 to 5.14 at Lck; 5.03 to 5.14 on FGFR1; under 5.03 against Src. Besides, the pIC50 on ErbB4 was 5.14 to 5.30.
